Test results published in patent US10646567B2, “Methods of treating cancer using PD-1 axis binding antagonists and MEK inhibitors” (Genentech, Inc., priority 2011, dated 2020).

Columns and labels:
[1] = test system: human melanoma cell lines and human colorectal cell lines; test: Surface MHC-I expression on human tumor cell lines (FACS); type: cell-based; conditions: 1 micromolar, 24 hours, compared to vehicle treated cells
Protocol: To determine if treatment with MEK inhibitor (MEKi) enhanced immunogenicity of tumor cells, surface expression of MHC-I on tumor cell lines treated with MEK inhibitors GDC-0973 and G-38963 was assayed. Briefly, human melanoma cell lines (Malme-3M, A2058, […][…], SK23, SKMEL-28, 537 Mel, RPMI-795) and human colorectal cell lines (Colo 320 DM, Colo 205, WiDr, Colo 741, RKO, DLD-1, HM7, HCT-15) were treated with 1 micromolar […]-0973 or G-38963, BRAF inhibitor (BRAFi) GDC-0879, or DMSO vehicle for 24 hours. Following treatment, cells were stained for surface MHC Class I expression with an antibody against […] for subsequent FACS analysis. Data shown is for treatment […]-0973. Labeled isotype-matched antibodies were used to determine the level of non-specific staining.

[2] = test system: mouse tumor cell lines (MC38, B16.F10, CT26); test: Surface MHC-I expression on mouse tumor cell lines (FACS); type: cell-based; conditions: 1 micromolar, 24 hours, compared to vehicle treated cells
Protocol: To determine if treatment with MEK inhibitor (MEKi) enhanced immunogenicity of mouse tumor cells similarly to human tumor cells, surface expression of MHC-I on mouse tumor cell lines treated with MEKi GDC-0973 was assayed. Briefly, mouse melanoma cell lines ([…]) and a mouse colorectal cell line (CT26) were treated with MEKi GDC-0973, G-38963 or vehicle. Briefly, cells were stimulated for 24 hours with 1 micromolar MEK inhibitor or DMSO vehicle control. Following treatment, cells were surfaced stained with an antibody against MHC-I (H-2D) and expression was assayed by subsequent FACS analysis. Labeled isotype-matched antibodies were used to determine the level of non-specific staining.

[3] = test system: human peripheral blood mononuclear cells; test: Surface MHC-I expression on human PBMCs (FACS); type: cell-based; conditions: 1 μM or 3 μM, 24 hours; CD4+ T cells, CD8+ T cells, B cells, monocytes; compared to vehicle
Protocol: To determine if enhanced cell surface expression of MHC-I is specific to tumor cells, the effect of MEKi treatment on MHC-I expression on human peripheral blood mononuclear cells (PMBCs) was assayed. Briefly, PMBCS were isolated from whole blood by first diluting it with an equal volume of room temperature PBS and subsequent overlay onto Ficoll-filled Leucosep tubes (Greiner Bio-One). […] Gluta-MAX, sodium pyruvate, penicillin/streptomycin, and non-essential amino acids). Cells were plated in 6 well plates at 4×10^6 per well with a total of 4 ml per well. MEK inhibitor GDC-0973 was added at either 1 μM or 3 μM. Cells were harvested 24 hours later and distributed to a 96-well V-bottom plate for FACS staining. […] CD3-FITC, HLA-ABC-PE, CD4-APC, CD19-FITC, and CD14-FITC. Propidium iodide was included to exclude dead cells. Samples were run on a BD FACSCaliber flow cytometer and data was analyzed using FlowJo software (Tree Star, Inc.).

[4] = test system: human CD8+ T cells; test: CD8+ T cell proliferation (3H-thymidine); type: cell-based; conditions: for T cell receptor induced proliferation, anti-CD3 stimulation: 0.01 μM MEKi; for T cell activation, co-stimulation with anti-CD3 and anti-CD28: 10 μM to 0.001 μM MEKi; for T cell proliferation, anti-CD3 stimulation: all MEKi concentrations tested (10 μM to 0.001 μM)
Protocol: Recent studies have shown that MEK inhibitor treatment impairs T lymphocyte function (Boni et al., Cancer Res., 70(13), 2010). To confirm that MEK inhibitor treatment impaired CD8+ T cells, T cells were treated with MEKi in combination with T cell stimulation signals and assayed for T cell proliferation. Briefly, human CD8+ T cells were purified from whole blood using StemCell Technologies human CD8 RosetteSep as per manufacturer's instructions. Purified cells were plated at 200,000 per well in triplicate in 96-well U-bottom plates with 200,000 per well of either anti-CD3 or anti-CD3/anti-CD28 Dynabeads (Invitrogen). MEK inhibitors GDC-0973 and G-38963 were titrated 10-fold from 10 μM to 0.001 μM such that the final culture concentration was 0.5% DMSO in a total volume of 200 μl per well. […] Gluta-MAX, sodium pyruvate, penicillin/streptomycin, and non-essential amino acids. At 48 hours, wells were pulsed with 1 μCi/well of 3H-thymidine and cultured an additional 16 hours prior to freezing and harvest.

[5] = test system: human monocyte-derived dendritic cells; test: Maturation and activation of monocyte-derived dendritic cells with anti-CD40 (FACS); type: cell-based; conditions: for frequency of DCs expressing surface markers of DC maturation and activation: increasing concentrations 0.001 μM to 10 μM, anti-CD40 co-stimulation
Protocol: Briefly, human monocytes were purified from whole blood using StemCell Technologies human monocyte RosetteSep as per manufacturer's instructions. Monocytes were seeded in T175 flasks at approximately 0.5-1.0×10^6 per ml in 50 ng/ml human GM-CSF and 100 ng/ml human IL-4 for 7 days total, with half-media exchanges every 2 days. […] MEK inhibitors and BRAF inhibitor were titrated 10-fold from 10 μM to 0.001 μM such that the final culture concentration was 0.5% DMSO in a total volume of 200 μl per well. Forty-eight hours later, cells were harvested and transferred to a 96-well V-bottom plate. […] HLA-DR,-DP,-DQ-FITC, HLA-ABC-PE, CD83-APC, CD14-FITC, CD80-PE, and CD86-APC. Propidium iodide was included to exclude dead cells. Samples were run on a BD FACSCaliber flow cytometer and data was analyzed using FlowJo software (Tree Star, Inc.).

[6] = test system: CT26 murine colorectal cells; test: CT26 colorectal tumor model, GDC-0973 dose study (first study); type: in vivo, BALB/c mice
Protocol: For the first study, female BALB/c mice were inoculated subcutaneously in the unilateral thoracic region with 100,000 CT26 murine colorectal cells in 100 μL of HBSS:matrigel. […] Groups of 10 mice were orally given the following in a volume of 200 μl daily for 21 days: Group 1 received MCT vehicle; Group 2 received 0.5 mg/kg GDC-0973; Group 3 received 1.0 mg/kg GDC-0973; Group 4 received 2.0 mg/kg GDC-0973; Group 5 received 3.0 mg/kg GDC-0973; Group 6 received 4.0 mg/kg GDC-0973; Group 7 received 5.0 mg/kg GDC-0973; Group 8 received 6.0 mg/kg GDC-0973; and Group 9 received 7.5 mg/kg GDC-0973. For both studies, mice were monitored for tumor growth and body weight changes two to three times per week for the duration of the study. […] Fred V. Fowler Company; Newton, Mass.) with length and width measurements perpendicular to one another, and tumor volume was calculated using the equation: Tumor Volume (mm^3)=(Length×Width^2)×0.5 For measurement of body weights, mice were weighed using an Adventura Pro AV812 scale (Ohaus Corporation; Pine Brook, N.J.). Percent body weight change was calculated using the equation: Body weight change (%)=[(WeightDay new−WeightDay 0)/WeightDay 0]×100 Data was analyzed using R, version 2.9.2 (R Development Core Team 2008; R Foundation for Statistical Computing; Vienna, Austria), and the mixed models were fit within R using the nlme package, version 3.1-96 (Pinheiro J et al., R package version 3. 2009, 1-96). Plotting was performed in Prism, version 5.0b for Mac (GraphPad Software, Inc.; La Jolla, Calif.). A mixed modeling approach was used to analyze the repeated measurement of tumor volumes from the same animals over time (Pinheiro J et al., Statistics and Computing, Springer. 2010). This approach addressed both repeated measurements and modest dropouts before study end for reasons classifiable statistically as missing at random (MAR). The fixed effect changes in log2 (volume) by time and dose are modeled as the sum of the main effects and interaction of a natural cubic regression spline basis in time with an auto-determined natural spline basis in dose. Intercepts and growth rates (slopes) were assumed to vary randomly by animal. […] Complete Response (CR) was defined as an individual animal whose tumor volume fell below the Limit of Detection (LOD), at any time during the study. Partial Response (PR) was defined as an individual animal whose tumor volume decreased by 50% of its initial tumor volume at any time during the study. Overall Response Rate (ORR) was defined as the sum of the complete and partial responses. Time To Progression 5X (TTP5X) was defined as the time in days for a group's fitted tumor volume (based upon the mixed modeling analysis described above) to exceed 5 times the starting volume, rounded to the nearest half day and reported as the TTP5X for that group. Linear mixed-effects analysis was also employed to analyze the repeated measurement of body weight changes from the same animals over time.

[7] = test system: CT26 murine colorectal cells; test: CT26 colorectal tumor model, anti-PD-L1 and GDC-0973 combination (second study); type: in vivo, BALB/c mice; conditions: GDC-0973 7.5 mg/kg orally daily for 21 days
Protocol: For the second study, female BALB/c mice were inoculated subcutaneously in the unilateral thoracic region with 100,000 CT26 murine colorectal cells in 100 μL of HBSS:matrigel. When mice achieved a mean tumor volume of approximately 200 mm3, they were randomly assigned to one of six different treatment groups on experimental day 0 and treatment was initiated on experimental day 1.
For both studies, mice were monitored for tumor growth and body weight changes two to three times per week for the duration of the study. For measurement of tumor growth, tumor volume was measured using UltraCal-IV calipers (Model 54-10-111; Fred V. Fowler Company; Newton, Mass.) with length and width measurements perpendicular to one another, and tumor volume was calculated using the equation: Tumor Volume (mm^3)=(Length×Width^2)×0.5
Data was analyzed using R, version 2.9.2 (R Development Core Team 2008; R Foundation for Statistical Computing; Vienna, Austria), and the mixed models were fit within R using the nlme package, version 3.1-96 (Pinheiro J et al., R package version 3. 2009, 1-96). […] A mixed modeling approach was used to analyze the repeated measurement of tumor volumes from the same animals over time (Pinheiro J et al., Statistics and Computing, Springer. 2010). This approach addressed both repeated measurements and modest dropouts before study end for reasons classifiable statistically as missing at random (MAR). The fixed effect changes in log2 (volume) by time and dose are modeled as the sum of the main effects and interaction of a natural cubic regression spline basis in time with an auto-determined natural spline basis in dose. Intercepts and growth rates (slopes) were assumed to vary randomly by animal. Tumor growth inhibition as a percentage of the control-treated group (% TGI) was calculated as the percentage of the area under the fitted curve (AUC) for the respective treatment group per day in relation to the control while the control treated mice were still on study, using the equation: % TGI=100×(1−AUCdose/AUCvehicles)

[8] = test system: mouse bone marrow dendritic cells; test: Activation of mouse bone marrow derived dendritic cells (FACS); type: cell-based; conditions: GDC-0973 1 μM, anti-PD-L1 10 μg/ml, 48 hours
Protocol: Briefly, mouse bone marrow cells were isolated and seeded at 2×10^6 per 10 ml total volume per 10 cm non-tissue culture treated dishes with 40 ng/ml mouse GM-CSF for 7 days. Fresh media was half-exchanged every 2-3 days. Culture medium was RPMI-1640 with 10% fetal bovine serum, 20 μM HEPES, 55 μM 2-mercaptoethanol, 50 μg/ml gentamicin, and 1:100 dilutions of the following supplements from Gibco: Gluta-MAX, sodium pyruvate, penicillin/streptomycin, and non-essential amino acids. On day 7 all cells were harvested and washed, then seeded at 100,000 cells/well in a 96-well flat-bottom plate. MEK inhibitor GDC-0973 was added at a final concentration of 1 μM, anti-PDL1 human/mouse reverse chimera or anti-Ragweed mouse IgG2a isotype control (Genentech PUR 22251) were added at 10 μg/ml. […] After 48 hours of stimulation, cells were harvested and transferred to a 96-well V-bottom plate. Samples were first Fc receptor blocked (purified anti-CD16/CD32 from BD Biosciences, 5 μg/ml) and then stained with I-A/I-E-FITC, H-2Db/H-2Kb-biotin (followed by streptavidin-PE), CD11c-APC, CD86-FITC, and CD80-PE (all from BD Biosciences). Propidium iodide was included to exclude dead cells. Samples were run on a BD FACSCaliber flow cytometer and data was analyzed using FlowJo software (Tree Star, Inc.).

[9] = test system: serum IL-10 and KC in tumor bearing animals; test: Serum cytokine levels in tumor bearing mice (Bio-Plex); type: in vivo; conditions: melanoma and colorectal models, 7 days after treatment
Description: Briefly, 7 days after treatment, mice were anaesthetized and bled retro-orbitally for serum.

[10] = test system: colorectal tumors; test: Colorectal tumor mouse model, G-38963 and anti-PD-L1; type: in vivo, mice; conditions: early (200 mm3) or late (450 mm3) intervention; anti-PD-L1 10 mg/kg ip 3x/week for 3 weeks; G-38963 75 mg/kg orally daily 21 days
Protocol: To determine if MEKi enhanced the anti-tumor effect of anti-PD-L1 antibodies, mouse models for colorectal tumors were treated with the combination treatment. Briefly, mice were inoculated subcutaneously with tumor cells and allowed to grow tumors. When tumor bearing mice achieved a mean tumor volume of 200 mm3 (FIG. 7A) or 450 mm3 (FIG. 7B), mice were randomly assigned to 1 of 4 treatment groups. […] Mice were monitored for tumor growth and body weight changes.

[11] = test system: Cloudman S91 melanoma tumors; test: Melanoma tumor mouse model; type: in vivo, mice; conditions: anti-PD-L1 10 mg/kg ip 3x/week for 3 weeks; G-38963 75 mg/kg orally daily 21 days
Protocol: To determine if MEKi enhanced the anti-tumor effect of anti-PD-L1 antibodies, mouse models for melanoma tumors were treated with the combination treatment. Briefly, mice were inoculated subcutaneously with tumor cells and allowed to grow tumors. When tumor bearing mice achieved a mean tumor volume of 100-200 mm3, mice were randomly assigned to 1 of 4 treatment groups. […] Mice were monitored for tumor growth and body weight changes.

SMILES: O=C(c1ccc(F)c(F)c1Nc1ccc(I)cc1F)N1CC(O)([C@@H]2CCCCN2)C1 [GDC-0973, Methanone, [3,4-difluoro-2-[(2-fluoro-4-iodophenyl)amino]phenyl][3-hydroxy-3-(2S)-2-piperidinyl-1-azetidinyl]-]
- cell surface expression of MHC-I [1]: upregulated
- cell surface expression of MHC-I [2]: upregulated
- cell surface expression of MHC-I [3]: not upregulated
- T cell receptor induced proliferation, anti-CD3 stimulation [4]: nearly complete inhibition
- T cell activation, co-stimulation with anti-CD3 and anti-CD28 [4]: sufficient to overcome the inhibitory effect of MEKi
- T cell proliferation, anti-CD3 stimulation [4]: reduced the stimulatory effect of anti-CD3
- frequency of cells expressing CD83, MHC-II and CD86 ([5]; 1 μM, anti-CD40, 48 hours, compared to vehicle): increased
- frequency of DCs expressing surface markers of DC maturation and activation [5]: enhanced the frequency of DCs expressing these surface markers
- % TGI ([6]; 0.5 mg/kg orally daily for 21 days): −8%
- % TGI ([6]; 1.0 mg/kg orally daily for 21 days): −16%
- % TGI ([6]; 2.0 mg/kg orally daily for 21 days): −21%
- % TGI ([6]; 3.0 mg/kg orally daily for 21 days): −4%
- % TGI ([6]; 4.0 mg/kg orally daily for 21 days): 27%
- % TGI ([6]; 5.0 mg/kg orally daily for 21 days): 55%
- % TGI ([6]; 6.0 mg/kg orally daily for 21 days): 72%
- % TGI ([6]; 7.5 mg/kg orally daily for 21 days): 87%
- tumor growth ([6]; increasing doses, maximal inhibition at 7.5 mg/kg at 20 days post-treatment): suppressed tumor growth
- % CR [7]: 0%
- % PR [7]: 10%
- % TGI [7]: 71%
- TTP5X [7]: 21.5 days
- DC surface activation markers MHC-II, CD80, CD86 [8]: enhanced
- DC surface expression of MHC-I [8]: enhanced

SMILES: O=C(NOCCO)c1oc2ccncc2c1Nc1ccc(I)cc1F [Compound G-38963]
- cell surface expression of MHC-I [1]: upregulated
- cell surface expression of MHC-I [2]: upregulated
- T cell receptor induced proliferation, anti-CD3 stimulation [4]: nearly complete inhibition
- T cell activation, co-stimulation with anti-CD3 and anti-CD28 [4]: sufficient to overcome the inhibitory effect of MEKi
- T cell proliferation, anti-CD3 stimulation [4]: reduced the stimulatory effect of anti-CD3
- frequency of DCs expressing surface markers of DC maturation and activation [5]: enhanced the frequency of DCs expressing these surface markers
- serum IL-10 level [9]: decreased
- tumor growth [10]: highly effective as a single agent therapy at preventing tumor growth
- tumor growth [11]: highly effective as a single agent therapy at preventing tumor growth
